Test results as given in ChEMBL document CHEMBL1201862, “PubChem BioAssay data set” (2004).
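Protocol summary: plate cells (96-well), add compound at 5 concentrations, incubate 48 h, interpolate endpoints linearly. GI50 = concentration required for 50% inhibition of growth.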 The source made the active and inactive calls. No stated cut-off is given here; in the data, active = GI50 up to about 1.1 µM and inactive = higher.

What was measured:
Test in all cases: NCI anticancer screen, dose series, 48 h
SK-OV-3 = tested on: SK-OV-3
SNB-75 = tested on: SNB-75
MDA-MB-435 = tested on: MDA-MB-435
ACHN = tested on: ACHN
SF-295 = tested on: SF-295
MDA-MB-231 = tested on: MDA-MB-231
NCI/ADR-RES = tested on: NCI/ADR-RES
NCI-H23 = tested on: NCI-H23
OVCAR-4 = tested on: OVCAR-4
OVCAR-3 = tested on: OVCAR-3
SK-MEL-5 = tested on: SK-MEL-5
A549 = tested on: A549
SN12C = tested on: SN12C
RXF 393 = tested on: RXF 393
TK-10 = tested on: TK-10
HOP-62 = tested on: HOP-62
U-251 = tested on: U-251
UO-31 = tested on: UO-31
A498 = tested on: A498

SMILES | GI50 (SK-OV-3) | GI50 (SNB-75) | GI50 (MDA-MB-435) | GI50 (ACHN) | GI50 (SF-295) | GI50 (MDA-MB-231) | GI50 (NCI/ADR-RES) | GI50 (NCI-H23) | GI50 (OVCAR-4) | GI50 (OVCAR-3) | GI50 (SK-MEL-5) | GI50 (A549) | GI50 (SN12C) | GI50 (RXF 393) | GI50 (TK-10) | GI50 (HOP-62) | GI50 (U-251) | GI50 (UO-31) | GI50 (A498)
CC1=C(C(=O)NCC(C)O)CC(C(=O)NCC(C)O)=C(C)N1 (configuration not stated) | > 100 µM (inactive) | 72.9 µM (inactive) | > 100 µM (inactive) | > 100 µM (inactive) | > 100 µM (inactive) | 46.5 µM (inactive) | > 100 µM (inactive) | > 100 µM (inactive) | > 100 µM (inactive) | > 100 µM (inactive) | > 100 µM (inactive) | > 100 µM (inactive) | > 100 µM (inactive) | > 100 µM (inactive) | > 100 µM (inactive) | > 100 µM (inactive) | > 100 µM (inactive) | > 100 µM (inactive) | 
N=C(N)N/N=C/c1c(-c2ccc(Cl)cc2)nc2n1CCS2 | 13.9 µM (inactive) | 13.3 µM (inactive) | 11.9 µM (inactive) | 14.1 µM (inactive) | 3.53 µM (inactive) |  | 16.4 µM (inactive) | > 10 µM (inactive) | 15.3 µM (inactive) | 8.18 µM (inactive) | 3.32 µM (inactive) | 10 µM (inactive) | 14.3 µM (inactive) | 9.29 µM (inactive) | 15.7 µM (inactive) | 12.6 µM (inactive) | 12.9 µM (inactive) | 12.7 µM (inactive) | 12.7 µM (inactive)
Cn1c2ccccc2c2cc(-c3ccccc3)c3c(c21)C(=O)c1ccccc1C3=O | 38.3 µM (inactive) | 34.4 µM (inactive) |  |  | 21.5 µM (inactive) |  |  | 5.79 µM (inactive) | 14.5 µM (inactive) | 11.9 µM (inactive) |  | 20.4 µM (inactive) | 28.6 µM (inactive) |  | 48.3 µM (inactive) | 40.5 µM (inactive) |  | 11 µM (inactive) | > 100 µM (inactive)
C[C@@H](c1ccccc1)n1c(N)c(-c2ccccn2)c2ccc([N+](=O)[O-])cc2c1=O |  | 12.8 µM (inactive) | 92.7 µM (inactive) | 56.9 µM (inactive) |  | 86.3 µM (inactive) | 26.9 µM (inactive) | 54.6 µM (inactive) | 80.2 µM (inactive) |  | 25.7 µM (inactive) | 34.9 µM (inactive) | 98.2 µM (inactive) |  | 31.2 µM (inactive) |  | 47.5 µM (inactive) | 14.5 µM (inactive) | 18.5 µM (inactive)
C[C@]12CC[C@H]3[C@@H](CCC4=C/C(=N/OCCN5CCCCC5)CC[C@@]43C)[C@@H]1CC[C@@H]2O | 15.2 µM (inactive) | 7.26 µM (inactive) | 7.66 µM (inactive) | 20.7 µM (inactive) | 13.8 µM (inactive) | 22.2 µM (inactive) | 16.7 µM (inactive) | 13.7 µM (inactive) | 13.9 µM (inactive) | 16.3 µM (inactive) | 8.63 µM (inactive) | 14.4 µM (inactive) | 17.4 µM (inactive) | 11.8 µM (inactive) | 14.3 µM (inactive) | 14.1 µM (inactive) | 13.3 µM (inactive) | 12.2 µM (inactive) | 
COc1ccc2c(=O)c(-c3cc4c(cc3OC)OCO4)coc2c1 | > 100 µM (inactive) | 93.3 µM (inactive) |  | 43.7 µM (inactive) | 37.7 µM (inactive) | 61.5 µM (inactive) | > 100 µM (inactive) | > 100 µM (inactive) | > 100 µM (inactive) | > 100 µM (inactive) | > 100 µM (inactive) | > 100 µM (inactive) | > 100 µM (inactive) |  | 56.1 µM (inactive) | 41.9 µM (inactive) | 59.2 µM (inactive) | > 100 µM (inactive) | > 100 µM (inactive)
NCCCNCCCCN1CCOC1=O | > 100 µM (inactive) | > 100 µM (inactive) | > 100 µM (inactive) | > 100 µM (inactive) | > 100 µM (inactive) | > 100 µM (inactive) | > 100 µM (inactive) | > 100 µM (inactive) |  | > 100 µM (inactive) | > 100 µM (inactive) | > 100 µM (inactive) | > 100 µM (inactive) |  | > 100 µM (inactive) | > 100 µM (inactive) | > 100 µM (inactive) | > 100 µM (inactive) | > 100 µM (inactive)
N=C(N)NS(=O)(=O)c1ccc(NC(=O)c2cccc3c(NNc4ccc(S(=O)(=O)N=C(N)N)cc4)c4ccccc4nc23)cc1 | > 100 µM (inactive) | > 100 µM (inactive) | 42.3 µM (inactive) | 75 µM (inactive) | > 100 µM (inactive) | 46.6 µM (inactive) | > 100 µM (inactive) | 52.4 µM (inactive) | 80.5 µM (inactive) | 38.2 µM (inactive) | 56.9 µM (inactive) | > 100 µM (inactive) | > 100 µM (inactive) | > 100 µM (inactive) | > 100 µM (inactive) | > 100 µM (inactive) | 28.4 µM (inactive) | > 100 µM (inactive) | 
COc1ccc2[nH]c3c([N+](=O)[O-])ccc(NCCN(C)C)c3/c(=N/CCN(C)C)c2c1 | 2.85 µM (inactive) | 1.8 µM (inactive) | 1.63 µM (inactive) |  | 1.58 µM (inactive) | 1.28 µM (inactive) |  | 1.49 µM (inactive) | 0.521 µM (active) |  | 1.86 µM (inactive) | 1.66 µM (inactive) | 1.37 µM (inactive) | 1.03 µM (active) | 3.13 µM (inactive) | 0.695 µM (active) |  |  | 
O=[N+]([O-])c1ccc(Cl)cc1N/N=C/c1cccs1 | > 100 µM (inactive) | > 100 µM (inactive) | > 100 µM (inactive) | > 100 µM (inactive) | > 100 µM (inactive) | > 100 µM (inactive) | > 100 µM (inactive) | > 100 µM (inactive) | > 100 µM (inactive) | > 100 µM (inactive) | > 100 µM (inactive) | > 100 µM (inactive) | > 100 µM (inactive) | > 100 µM (inactive) | > 100 µM (inactive) | > 100 µM (inactive) | > 100 µM (inactive) | > 100 µM (inactive) | 
O=C(/C=C(\Nc1ccccc1O)c1ccc(Br)cc1)C(Cl)(Cl)Cl | 1.07 µM (active) | 13.7 µM (inactive) | 8.89 µM (inactive) | 2.55 µM (inactive) | 6.12 µM (inactive) | 6.95 µM (inactive) | 11.4 µM (inactive) | 12.6 µM (inactive) | 5.16 µM (inactive) | 4.34 µM (inactive) | 14.2 µM (inactive) | 2.75 µM (inactive) | 7.67 µM (inactive) | 5.51 µM (inactive) | 6.95 µM (inactive) | 13.6 µM (inactive) | 3.74 µM (inactive) | 2.68 µM (inactive) | 
[N-]=[N+]=Nc1ccc2c(c1)Sc1ccccc1N2CCCCN1CCN(Cc2ccc(C(=O)c3ccc(CSCC(N)C(=O)O)cc3)cc2)CC1 (configuration not stated) | > 100 µM (inactive) |  | 1.59 µM (inactive) | 31.6 µM (inactive) | 18.2 µM (inactive) | 13.6 µM (inactive) |  | 31.3 µM (inactive) | > 100 µM (inactive) | 26.9 µM (inactive) | 13.8 µM (inactive) |  | 31.3 µM (inactive) | 46.7 µM (inactive) | 56.2 µM (inactive) | 23.9 µM (inactive) | 11.1 µM (inactive) | 37.4 µM (inactive) | 18.5 µM (inactive)
Cc1nn(C(=O)Cc2ccccc2)c2c1C(c1ccccc1O)SC(=N)N2 (configuration not stated) | > 100 µM (inactive) | > 100 µM (inactive) | > 100 µM (inactive) | > 100 µM (inactive) | > 100 µM (inactive) | > 100 µM (inactive) |  | > 100 µM (inactive) |  |  | > 100 µM (inactive) | > 100 µM (inactive) | > 100 µM (inactive) |  | > 100 µM (inactive) | > 100 µM (inactive) |  | > 100 µM (inactive) | > 100 µM (inactive)
CCc1n[nH]c(=O)n1N | > 100 µM (inactive) | > 100 µM (inactive) | > 100 µM (inactive) | > 100 µM (inactive) | > 100 µM (inactive) | > 100 µM (inactive) | > 100 µM (inactive) | > 100 µM (inactive) | > 100 µM (inactive) | > 100 µM (inactive) | > 100 µM (inactive) | > 100 µM (inactive) | > 100 µM (inactive) |  | > 100 µM (inactive) | > 100 µM (inactive) | > 100 µM (inactive) | > 100 µM (inactive) | > 100 µM (inactive)
CC1(C)CN=C(c2ccc3ccccc3c2O)N1 |  | > 100 µM (inactive) | > 100 µM (inactive) | > 100 µM (inactive) | 2.27 µM (inactive) | > 100 µM (inactive) | > 100 µM (inactive) | > 100 µM (inactive) | > 100 µM (inactive) | 22.2 µM (inactive) | > 100 µM (inactive) | 23.6 µM (inactive) | > 100 µM (inactive) |  | > 100 µM (inactive) | > 100 µM (inactive) | > 100 µM (inactive) | > 100 µM (inactive) | > 100 µM (inactive)
Cc1cc2c(c3oc(C4(C)OC4C4OC4C)cc(=O)c13)C(=O)c1c(O)c(C3CC(C)(N(C)C)C(O)C(C)O3)cc(C3CC(N(C)C)C(O)C(C)O3)c1C2=O (configuration not stated) | 0.000215 µM (active) |  | 9.23e-05 µM (active) | 4.4e-05 µM (active) | 4.68e-05 µM (active) | 0.000227 µM (active) | 0.000118 µM (active) | 0.0025 µM (active) |  | 0.000191 µM (active) | 0.00112 µM (active) | 0.0025 µM (active) | 0.000136 µM (active) | 0.000104 µM (active) | 0.000197 µM (active) | 5.79e-05 µM (active) | 4.1e-05 µM (active) | 0.000557 µM (active) | 
